Test results taken from patent US7342000B2, “Semisynthetic macrolide antibiotics of the azalide series” (GlaxoSmithKline istrazivacki center Zagreb, priority 2002, dated 2008).

Columns and labels:
Test in all cases: MIC by broth dilution (NCCLS M7-A2)
Format in all cases: cell-based
Details in all cases: 90% growth inhibition
[1] = test system: M. catarrhalis ATCC 23246
Description: (§1) MIC levels for all compound were determinated on panel of susceptible, and resistant Gram positive bacterial strains (S. aureus, S. pneumoniae and S. pyogenes) and on Gram negative strains (E. coli, H. influenzae, […], M. catarrhalis).

[2] = test system: E. faecalis ATCC 29212
Description: as §1

[3] = test system: S. pyogenes M
Description: as §1

[4] = test system: S. pyogenes iMLS
Description: as §1

[5] = test system: H. influenzae ATCC 49247
Description: as §1

[6] = test system: S. pneumoniae
Description: as §1

[7] = test system: S. aureus ATCC 13709
Description: as §1

[8] = test system: S. pyogenes
Description: as §1

[9] = test system: E. coli ATCC 25922
Description: as §1

Molecule	MIK [1] [µg/mL]	MIK [2] [µg/mL]	MIK [3] [µg/mL]	MIK [4] [µg/mL]	MIK [5] [µg/mL]	MIK [6]	MIK [7] [µg/mL]	MIK [8]	MIK [9] [µg/mL]
CC[C@H]1OC(=O)[C@H](C)[C@@H](O[C@H]2C[C@@](C)(OC)[C@@H](O)[C@H](C)O2)[C@H](C)[C@@H](O[C@@H]2O[C@H](C)C[C@H](N(C)C)[C@H]2O)[C@](C)(O)C[C@@H](C)CN(CCCNC(=O)N(CCC#N)c2cccc3ccccc23)[C@H](C)[C@@H](O)[C@]1(C)O [Example 28, 9-Deoxo-9-dihydro-9a-N-[N′-(β-cyanoethyl)-N′-(1-naphtyl)carbamoyl-γ-aminopropyl]-9a-aza-9a-homoerithromycin A]	0.25	4	4	2	1	≦0.125 μg/ml	1	≦0.125 μg/ml	8
9-Deoxo-9-dihydro-9a-N-[N′-(β-cyanoethyl)-N′-(β-phenylethyl)thiocarbamoyl-γ-aminopropyl]-9a-aza-9a-homoerithromycin A [Example 34]	1	16	8	4	2	≦0.125 μg/ml	1	≦0.125 μg/ml	32
CC[C@H]1OC(=O)[C@H](C)[C@@H](O[C@H]2C[C@@](C)(OC)[C@@H](O)[C@H](C)O2)[C@H](C)[C@@H](O[C@@H]2O[C@H](C)C[C@H](N(C)C)[C@H]2O)[C@](C)(O)C[C@@H](C)CN(CCCNC(=S)NCc2ccccc2)[C@H](C)[C@@H](O)[C@]1(C)O [Example 4, 9-Deoxo-9-dihydro-9a-N-(N′-benzylthiocarbamoyl-γ-aminopropyl)-9a-aza-9a-homoerithromycin A]	1	8	4	2	2	≦0.125 μg/ml	2	≦0.125 μg/ml	16
9-Deoxo-9-dihydro-9a-N-[N′-(β-cyanoethyl)-N′-(3,4,5-trimethoxyphenyl)carbamoyl-γ-aminopropyl]-9a-aza-9a-homoerithromycin A [Example 37]	1	16	8	47	2	≦0.125 μg/ml	4	≦0.125 μg/ml	16
CC[C@H]1OC(=O)[C@H](C)[C@@H](O[C@H]2C[C@@](C)(OC)[C@@H](O)[C@H](C)O2)[C@H](C)[C@@H](O[C@@H]2O[C@H](C)C[C@H](N(C)C)[C@H]2O)[C@](C)(O)C[C@@H](C)CN(CCCNC(=O)NC(C)C)[C@H](C)[C@@H](O)[C@]1(C)O [Example 1, 9-Deoxo-9-dihydro-9a-N-(N′-isopropylcarbainoyl-γ-aminopropyl)-9a-aza-9a-homoerithromycin A]	0.5	32	32	8	32	≦0.125 μg/ml	2	≦0.125 μg/ml	16
CC[C@H]1OC(=O)[C@H](C)[C@@H](O[C@H]2C[C@@](C)(OC)[C@@H](O)[C@H](C)O2)[C@H](C)[C@@H](O[C@@H]2O[C@H](C)C[C@H](N(C)C)[C@H]2O)[C@](C)(O)C[C@@H](C)CN(CCCNC(=S)N(CCC#N)c2cccc3ccccc23)[C@H](C)[C@@H](O)[C@]1(C)O [Example 31, 9-Deoxo-9-dihydro-9a-N-[N′-(β-cyanoethyl)-N′-(1-naphtyl)thiocarbamoyl-γ-aminopropyl]-9a-aza-9a-homoerithromycin A]	2	4	4	4	2	≦0.125 μg/ml	4	≦0.125 μg/ml	8
